Laboratory results published in US9839614B2, “Nanoparticle and polymer formulations for thyroid hormone analogs, antagonists, and formulations and uses thereof” (NANOPHARMACEUTICALS LLC, priority 2009, dated 2017).

Legend:
[1] = system: GL261 murine brain tumor cells; test: GL261 sublethal damage repair (SLDR), split dose; type: cell-based
Experimental: SLDR was measured at 10% immediate survival level as determined from the acute single dose curve for both control and Tetrac-treated cells in both growth states (i.e. exponentially growing and plateau phase cells. Flasks were irradiated with one-half of the total dose and returned to the 37° C. incubator. At increasing periods of time, flasks were removed, and given the second half of the immediate 10% survival dose. Survival was measured at 0, 0.5, 1.0, 1.5, 2.0, 3.0, 4.0, 6.0, 8.0, and 10.0 hours after the initial dose.
To investigate the effects of tetrac on SLDR and PLDR, cells were chosen that had been given a one-hour treatment with tetrac at two different times, i.e., at 70 and 270 hours post-seeding).

[2] = system: human medullary carcinoma of the thyroid (MTC) xenografts; test: MTC xenograft in nude mice; conditions: over the course of administration
Experimental: Human medullary carcinoma cells (TT, Catalog No. CRL-1803) were purchased from American Type Culture Collection (Manassas, Va.) and cultured as instructed by the supplier, using a complete growth medium consisting of F-12K medium with 10% FBS. Cells were cultured in 5% CO2/air atmosphere at 37 C to sub-confluence and then treated with 0.25% (w/v) trypsin/EDTA to affect cell release from the culture vessel. After washing with culture medium, the cells were suspended in DMEM (free of phenol red and FBS) and counted. • Tetrac versus tetrac NP distribution in h-MTC. […] Female NCr nude homozygous mice aged 5-6 weeks and body weights of 20 g were purchased form Taconic Farms (Hudson N.Y.). Animals were maintained under specific pathogen-free conditions and housed 4 animals per cage, under controlled conditions of temperature (20-24° C.) and humidity (60-70%) and a 12 h light/dark cycle. Water and food were provided ad libitum.

GL261 cells = test: Cell multiplicity (CM) factor after one hour Tetrac exposure; type: cell-based, murine; conditions: after one hour exposure to Tetrac
Experimental: Cell multiplicity (CM) was determined from Giemsa stained slides by counting the number of cells per microcolony under 20× magnification. At least 400 microcolonies were counted.
The length of time that Tetrac biologically affected GL261 cells was also determined. To do this, the multiplicity relationship defined above was utilized. Tetrac was added to cells one hour prior to the determination of the multiplicity. After the exposure of exponentially growing GL261 cells to Tetrac, the Tetrac containing medium was removed from GL261 cells, which contained an unknown residual and fresh medium (without Tetrac) was added. As a function of time (i.e., 0, 1, 2, 3, 4, 6, 8, and 10 hours, and 1-6 days), the cells, containing an unknown residual amount of remaining Tetrac, were then processed for determination of the multiplicity index (i.e. the number of cells per microcolony).

MCF7 and MCF7/R cells = test: Intracellular accumulation of radiolabeled doxorubicin; type: cell-based; conditions: 24 hours, presence of Tetrac
Experimental: The cells were incubated for 24 hours with doxorubicin in the absence or the presence of Tetrac, after that they were washed and then solubilized. Radioactivity associated with the cell lysates was counted and compared between the two cell lines either treated or not with Tetrac. The data represent an average of 3 determinations±SE.

[3] = system: doxorubicin-resistant MCF7/R tumors; test: Doxorubicin-resistant tumors in nude mice; type: in vivo
Experimental: Mice were injected with doxorubicin-resistant MCF7/R cells (10^6) and after 10 days, they were assigned into groups of seven mice each and challenged with doxorubicin (2 mg/kg) or Tetrac (30 mg/kg) either alone or in combination. Tumor volume was measured every 3 days for up to three weeks.

[4] = system: SKN-SH, SaOS2 and MCF7 cells, drug-sensitive and -resistant; test: Proliferation of drug-sensitive versus drug-resistant cancer cells (MTT assay); type: cell-based; conditions: 4 days
Experimental: Drug-sensitive and -resistant SKN-SH (FIGS. 13C-D), SaOS2 (FIGS. 13A-B), and MCF7 (FIGS. 13E-F) cells were subjected to treatment with increasing concentrations of Tetrac or Doxirubicin over a period of 4 days. Cell viability was then measured by MTT assay. The data represent the average of 4 determinations±SE.
Doxorubicin resistant SKN-SH/R, MCF7/R and SaOS2/R cells were subjected to treatment with Tetrac either alone or in combination with each of doxorubicin (Dox), etoposide (Etop), cisplatin (Cisp), or trichostatin A (TSA) at the indicated concentrations, After 4 days in cell viability was determined by the MTT assay and the data represented as average of 3 determinations±SE.

O=C(O)Cc1cc(I)c(Oc2cc(I)c(O)c(I)c2)c(I)c1 [Tetrac, tetraiodothyroacetic acid]
cellular repair of x-ray damage (FIG. 58) ([1]; Tetrac 2 uM, 6 to 8 hours post-irradiation): no repair of x-ray damage | SLDR recovery ratio ([1]; exponential Tetrac-treated cells, 2 hours after the first dose): 1.8 | factor of reduction of SLDR ([1]; exponential cells): 1.8 | factor of decrease in cellular repair ([1]; plateau phase cells, three hours post-irradiation): ~3 | survival relative to survival at 0 hours ([1]; plateau phase, 3 hours after the initial dose): approximately 36% | decrease in tumor tissue hemoglobin content [2]: 66% | time at which 50% decrease in the CM factor was recorded (GL261 cells): 60 h | intracellular accumulation of radiolabeled doxorubicin (MCF7 and MCF7/R cells): increased significantly | growth of drug resistant tumors ([3]; Tetrac 30 mg/kg): effective in suppressing the growth of drug resistant tumors | toxic effect ([3]; Tetrac 30 mg/kg): without any noticeable toxic effect | doxorubicin-sensitivity in vivo ([3]; Tetrac with doxorubicin 2 mg/kg): not restored | anti-proliferative activity against drug-sensitive and drug-resistant cells ([4]; MTT): equivalent anti-proliferative activity | cellular responses to doxorubicin, etoposide, cisplatin and TSA combined with Tetrac ([4]; resistant cells): significantly enhanced
